Read-outs that look alike come from different tables or passages of the source.
Tests used:
SK-BR-3 = assay: In vitro anti-tumor activity of molecular glue compounds, CellTiter-Lumi cell viability assay; type: cell-based; details: Homo sapiens, SK-BR-3 cells
Experimental: (§1) Different tumor cells were all commercially available and used for evaluating the anti-tumor inhibitory activity of the compounds of the present disclosure. Various tumor cells were cultured until the cell confluency reached 80%-90%, with cell viability above 90% as determined by trypan blue exclusion. Then, the cells were plated. Specifically, after cell density optimization, 100 µL of each of the cell suspensions of HL-60 and SK-BR-3 cells (cell density: 3000 cells/well), Romas cells (cell density: 6000 cells/well), NCI-H929 cells (cell density: 4000 cells/well), and NCI-H82 cells (cell density: 5000 cells/well) was plated in a BeyoGold™ ultra-low attachment black clear-bottom 96-well plate (Cat. No.: FULA965-24pcs), and the plate was incubated overnight. The next day, after the adherent cells were adhered to the wall and suspension cells requiring aggregation were aggregated, 50 µL of culture medium was aspirated from each well of the 96-well plate. Then, the compounds diluted with the corresponding culture media were added. Specifically, the compounds were serially diluted at a 5-fold gradient starting from the highest concentration of 1 µM, with a final DMSO concentration of 1%o, and the test compounds were then added to the cell culture plate. The plate was incubated in an incubator at 37 °C with 5% carbon dioxide for 96 h. Before measurement, the CellTiter-Lumi™ luminescent cell viability assay reagent was equilibrated to room temperature in the dark. Then, 50 µL of the CellTiter-Lumi™ (Cat. No.: C0065XL) cell viability assay reagent was added to each well of the 96-well plate. The plate was shaken in the dark on a shaker at 300 rpm for 10 min to ensure complete cell lysis. After the reaction was completed, the luminescence was measured on a multi-mode microplate reader. The cell inhibition rate was determined according to the luminescence. Then, a cell viability curve was generated by Graphpad Prism 8.0, and the IC50 values were calculated. The compounds of the present disclosure were tested for activity by the method described above. Table 1. Cell inhibitory activity (IC50 values)

GSPT1 protein = molecular target: T1, GSPT1 protein (Homo sapiens, UniProt P15170+Q96SW2); assay: GSPT1 protein degradation, Nano-Glo HiBiT assay in HiBiT-GSPT1 HEK293T cells; type: cell-based; details: 24 h
T1 construct: An HiBiT protein tag was added to the N-terminus of the endogenous GSPT1 protein of HEK293T cells by CRISPR gene editing technology; endogenous in cells; host or cells: HEK293T (CRISPR knock-in HiBiT-GSPT1 cell strain)
Experimental: This experiment was performed to evaluate the targeting property of the compounds. An HiBiT protein tag was added to the N-terminus of the endogenous GSPT1 protein of HEK293T cells by CRISPR gene editing technology, so as to construct a HiBiT-GSPT1 HEK293T stably transfected cell strain. HiBiT-GSPT1 HEK293T cells were cultured in DMEM containing 10% FBS and 1% PenStrep. When the cell confluency reached 80%-90%, the cells were digested with trypsin, pipetted into single cells, and resuspended in a corresponding culture medium to form a cell suspension. The cells were counted using Cell Countess (NanoEnTek, #Cat. EVE-MC2), and the cell viability was determined by trypan blue exclusion to ensure that the cell viability was above 90%. The cells were plated in a 384-well plate (Corning, #Cat. 3764) at 10,000 cells/40 µL of cell suspension per well, and cultured in an incubator at 37 °C with 5% CO2 overnight. The next day, the test compounds were added to the 384-well plate under conditions of 30 µM highest concentration, 5-fold serial dilution, and 1‰ DMSO. The plate was incubated in the incubator at 37 °C with 5% CO2 for another 24 h. Before measurement, the Nano-Glo HiBiT reagent was equilibrated to room temperature, the LgBiT protein was diluted with the Nano-Glo HiBiT Lytic buffer according to a dilution ratio of 1:100, and the Nano-Glo@HiBiT Lytic substrate was diluted to an appropriate volume according to a ratio of 1:50. After the cell culture plate was equilibrated at room temperature for 10 min, 40 µL of Nano-Glo HiBiT Lytic assay reagent was added to each well. The plate was shaken on a microplate shaker at a rotation speed of 300 rpm for 3 min in the dark. After the reaction was completed, the luminescencevalues were read on BMG PHERASTAR FS (BMG LRBTECH, Cat. No.: PHERAstar FSX), and the DC50 values were calculated using GraphPad Prism 8.0. Table 2. GSPT1 protein degradation

NCI-H929 = assay: In vitro anti-tumor activity of molecular glue compounds, CellTiter-Lumi cell viability assay; type: cell-based; details: Homo sapiens; NCI-H929 cells, 96 h incubation; read-out: Cell inhibitory activity (IC50 values) NCI-H929
Experimental: as §1

HL-60 = assay: as above; type: cell-based; details: Homo sapiens; HL-60 cells, 96 h incubation; read-out: Cell inhibitory activity (IC50 values) HL-60
Experimental: as §1

NCI-H82 = assay: as above; type: cell-based; details: Homo sapiens; NCI-H82 cells, 96 h incubation; read-out: Cell inhibitory activity (IC50 values) NCI-H82
Experimental: as §1

Romas = assay: as above; type: cell-based; details: Romas cells, 96 h incubation; read-out: Cell inhibitory activity (IC50 values) Romas
Experimental: as §1

[1] = Metabolic stability in liver microsomes; details: Monkey liver microsomes, after 60 min of incubation
Experimental: (§3) The final concentration of the substrate in the incubation system was 1 µM, and the incubation time was 60 min. Sampling was performed at 0 min, 5 min, 15 min, 30 min, and 60 min. The reaction was stopped with glacial acetonitrile containing an internal standard (testosterone-d3 at a concentration of 10 ng/mL). Verapamil was used as a positive control. […] The natural logarithm of the remaining percentage was subjected to linear fitting with time to determine the elimination rate constant (k).

[2] = Metabolic stability in liver microsomes; details: Rat liver microsomes, after 60 min of incubation
Experimental: as §3

[3] = Metabolic stability in liver microsomes; details: Human liver microsomes, after 60 min of incubation
Experimental: as §3

in vitro [4] = details: mouse, microsomes
Experimental: as §3

in vitro [5] = details: monkey, microsomes
Experimental: as §3

[6] = Metabolic stability in liver microsomes; details: Dog liver microsomes, after 60 min of incubation
Experimental: as §3

in vitro [7] = details: dog, microsomes
Experimental: as §3

in vitro [8] = details: rat, microsomes
Experimental: as §3

[9] = Metabolic stability in liver microsomes; details: Mouse liver microsomes, after 60 min of incubation
Experimental: as §3

in vitro [10] = details: human, microsomes
Experimental: as §3

HCT-15 = assay: Activity in cell strains with high expression of efflux pump proteins, cell viability assay; type: cell-based; details: Homo sapiens, HCT-15 cells, 96 h
Experimental: (§2) Three types of cells used for evaluating the activity of the compounds of the present disclosure against a cell strain with high expression of efflux pump proteins were all purchased from Nanjing Cobioer Biosciences Co., Ltd., and all the cells were derived from ATCC (American Type Culture Collection). Various tumor cells were cultured until the cell confluency reached 80%-90%, with cell viability above 90% as determined by trypan blue exclusion. Then, the cells were plated. Specifically, after cell density optimization, 75 µL of each of three cell suspensions of SNU-5, HCT-15, and AsPc-1 cells (3000 cells/well) was inoculated into a BeyoGold™ ultra-low attachment black clear-bottom 96-well plate (Cat. No.: FULA965-24pcs), and the plate was incubated overnight in a cell incubator at 37 °C with carbon dioxide. The next day, after the cells adhered to the wall, 75 µL of the compounds diluted with the corresponding culture media were added. Specifically, the compounds were serially diluted at a 5-fold gradient starting from the highest concentration of 1 µM, with a final DMSO concentration of 1‰, and the test compounds were then added to the cell culture plate. The plate was incubated in an incubator at 37 °C with 5% carbon dioxide for 96 h. Before measurement, the CellTiter-Lumi™ luminescent cell viability assay reagent was equilibrated to room temperature in the dark. Then, 50 µL of the CellTiter-Lumi™ (Cat. No.: C0065XL) cell viability assay reagent was added to each well of the 96-well plate. The plate was shaken in the dark on a shaker at 300 rpm for 10 min to ensure complete cell lysis. After the reaction was completed, the chemiluminescence intensity was measured on a multi-mode microplate reader. The cell viability inhibition rate was determined according to the chemiluminescence intensity. Then, a cell viability curve was generated by Graphpad Prism 8.0, and the IC50 values were calculated. Table 3. Activity of the compounds of the present disclosure in cell strains with high expression of efflux pump proteins (IC50 value)

AsPc-1 = assay: as above; type: cell-based; details: Homo sapiens, ASPC1, AsPc-1 cells, 96 h
Experimental: as §2

SNU-5 = assay: as above; type: cell-based; details: Homo sapiens, SNU-5 cells, 96 h
Experimental: as §2

[11] = 96 h incubation, read-out: Cell inhibitory activity (IC50 values) SK-BR-3

T1 sequence (P15170 whole entry): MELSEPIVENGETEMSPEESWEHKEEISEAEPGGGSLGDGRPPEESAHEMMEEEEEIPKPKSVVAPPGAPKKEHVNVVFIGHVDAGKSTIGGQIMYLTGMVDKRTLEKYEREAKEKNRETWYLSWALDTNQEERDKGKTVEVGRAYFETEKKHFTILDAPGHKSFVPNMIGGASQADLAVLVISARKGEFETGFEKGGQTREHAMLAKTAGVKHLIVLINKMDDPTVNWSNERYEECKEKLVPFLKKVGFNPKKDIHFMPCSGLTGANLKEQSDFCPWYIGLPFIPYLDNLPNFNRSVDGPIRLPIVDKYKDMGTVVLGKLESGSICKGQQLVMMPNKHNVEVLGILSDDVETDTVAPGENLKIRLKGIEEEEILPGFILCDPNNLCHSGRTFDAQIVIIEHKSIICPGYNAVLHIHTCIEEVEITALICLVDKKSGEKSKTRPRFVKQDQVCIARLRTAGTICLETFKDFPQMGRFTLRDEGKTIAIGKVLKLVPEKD
T1 sequence (Q96SW2 whole entry): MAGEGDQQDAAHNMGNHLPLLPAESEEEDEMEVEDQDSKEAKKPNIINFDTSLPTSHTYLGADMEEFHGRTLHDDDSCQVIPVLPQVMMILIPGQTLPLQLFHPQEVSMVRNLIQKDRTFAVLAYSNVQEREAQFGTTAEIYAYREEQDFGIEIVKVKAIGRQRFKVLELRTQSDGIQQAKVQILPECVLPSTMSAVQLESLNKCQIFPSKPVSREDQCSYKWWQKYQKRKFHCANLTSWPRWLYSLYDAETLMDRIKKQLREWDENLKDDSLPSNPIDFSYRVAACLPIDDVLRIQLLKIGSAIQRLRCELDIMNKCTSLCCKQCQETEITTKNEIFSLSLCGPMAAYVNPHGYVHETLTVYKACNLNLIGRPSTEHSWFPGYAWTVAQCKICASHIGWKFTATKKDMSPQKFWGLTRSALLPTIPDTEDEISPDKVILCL
T1 sequence (Q16531 whole entry partner): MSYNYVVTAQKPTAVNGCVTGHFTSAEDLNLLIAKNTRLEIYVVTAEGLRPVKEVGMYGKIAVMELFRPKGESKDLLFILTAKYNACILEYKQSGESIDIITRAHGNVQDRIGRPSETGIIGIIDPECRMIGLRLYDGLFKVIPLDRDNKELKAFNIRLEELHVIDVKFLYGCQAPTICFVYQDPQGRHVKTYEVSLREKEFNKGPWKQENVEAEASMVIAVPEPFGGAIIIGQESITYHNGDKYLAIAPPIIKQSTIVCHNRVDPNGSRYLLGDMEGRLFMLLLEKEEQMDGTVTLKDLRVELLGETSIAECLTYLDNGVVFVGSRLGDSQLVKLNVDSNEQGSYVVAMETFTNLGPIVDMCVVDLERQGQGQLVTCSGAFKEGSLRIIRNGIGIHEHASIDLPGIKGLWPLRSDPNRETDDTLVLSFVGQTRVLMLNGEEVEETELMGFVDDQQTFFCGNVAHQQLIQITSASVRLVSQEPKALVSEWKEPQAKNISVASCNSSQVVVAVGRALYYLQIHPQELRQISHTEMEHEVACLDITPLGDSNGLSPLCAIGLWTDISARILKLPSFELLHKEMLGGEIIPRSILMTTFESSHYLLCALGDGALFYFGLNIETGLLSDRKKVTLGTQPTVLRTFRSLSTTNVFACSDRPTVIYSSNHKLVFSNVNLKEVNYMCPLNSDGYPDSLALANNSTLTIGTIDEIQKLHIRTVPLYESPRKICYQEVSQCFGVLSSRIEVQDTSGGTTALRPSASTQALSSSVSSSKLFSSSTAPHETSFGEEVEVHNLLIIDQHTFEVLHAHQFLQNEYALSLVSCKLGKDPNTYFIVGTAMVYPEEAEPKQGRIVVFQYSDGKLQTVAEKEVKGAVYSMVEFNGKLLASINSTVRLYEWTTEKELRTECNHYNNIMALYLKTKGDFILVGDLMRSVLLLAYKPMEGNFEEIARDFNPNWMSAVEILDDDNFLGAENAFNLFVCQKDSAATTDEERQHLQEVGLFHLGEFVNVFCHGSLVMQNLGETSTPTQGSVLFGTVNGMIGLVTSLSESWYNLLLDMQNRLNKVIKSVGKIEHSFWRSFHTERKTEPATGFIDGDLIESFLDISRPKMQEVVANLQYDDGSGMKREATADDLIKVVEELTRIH

## CC(C)(C)OC(=O)N1CCCC(OCCCc2ccc(NC(=O)NCc3ccc4c(c3)CN(C3CCC(=O)NC3=O)C4=O)cc2Cl)C1 (stereo not shown) [Compound A19]
SK-BR-3; read-out: SK-BR-3 IC50
  IC50: 1.22 nM
GSPT1 protein
  DC50: 16 nM

## O=C1CCC(N2Cc3cc(CNC(=O)Nc4ccc(CCCOC5CCNCC5)c(Cl)c4)ccc3C2=O)C(=O)N1 (stereo not shown) [Compound B61]
NCI-H929
  IC50: < 10 nM
HL-60
  IC50: < 10 nM
SK-BR-3; [11]
  IC50: < 10 nM
NCI-H82
  IC50: 10 to 50 nM
Romas
  IC50: < 10 nM
[1]
  Parent drug remaining %: 79.4%
[2]
  Parent drug remaining %: 71.0%
[3]
  Parent drug remaining %: 83.4%
In vitro [4]
  CLint scaled at 1 µM: 32.2 mL/min/kg
  CLint scaled at 1 h, 1 µM: 23.7 mL/min/kg
  half-life at 1 µM: 2.9 h
In vitro [5]
  CLint scaled at 1 µM: 13.7 mL/min/kg
  CLint scaled at 1 h, 1 µM: 10.5 mL/min/kg
  half-life at 1 µM: 2.47 h
[6]
  Parent drug remaining %: 86.4%
In vitro [7]
  CLint scaled at 1 µM: 11.8 mL/min/kg
  CLint scaled at 1 h, 1 µM: 8.55 mL/min/kg
  half-life at 1 µM: 4.88 h
In vitro [8]
  CLint scaled at 1 µM: 19.8 mL/min/kg
  CLint scaled at 1 h, 1 µM: 14.6 mL/min/kg
  half-life at 1 µM: 2.08 h
[9]
  Parent drug remaining %: 79.8%
In vitro [10]
  CLint scaled at 1 µM: 7.03 mL/min/kg
  CLint scaled at 1 h, 1 µM: 5.27 mL/min/kg
  half-life at 1 µM: 4.12 h

## O=C1CCC(N2Cc3cc(CNC(=O)Nc4ccc(CCCOC5CNC5)c(Cl)c4)ccc3C2=O)C(=O)N1 (stereo not shown) [Compound B63]
NCI-H929
  IC50: < 10 nM
HL-60
  IC50: < 10 nM
SK-BR-3; [11]
  IC50: < 10 nM
NCI-H82
  IC50: 10 to 50 nM
Romas
  IC50: 10 to 50 nM
[1]
  Parent drug remaining %: 101%
[2]
  Parent drug remaining %: 94.9%
[3]
  Parent drug remaining %: 98.8%
In vitro [5]
  CLint scaled at 1 µM: 0.257 mL/min/kg
  CLint scaled at 1 h, 1 µM: 0.255 mL/min/kg
  half-life at 1 µM: 132 h
[6]
  Parent drug remaining %: 103%
In vitro [8]
  CLint scaled at 1 µM: 1.39 mL/min/kg
  CLint scaled at 1 h, 1 µM: 1.35 mL/min/kg
  half-life at 1 µM: 29.8 h
[9]
  Parent drug remaining %: 102%
In vitro [10]
  CLint scaled at 1 µM: 0.19 mL/min/kg
  CLint scaled at 1 h, 1 µM: 0.189 mL/min/kg
  half-life at 1 µM: 152 h

## O=C1CCC(N2Cc3cc(CNC(=O)Nc4ccc(CCCOC5CC6(CNC6)C5)c(Cl)c4)ccc3C2=O)C(=O)N1 (stereo not shown) [Compound B68]
NCI-H929
  IC50: < 10 nM
HL-60
  IC50: < 10 nM
SK-BR-3; [11]
  IC50: < 10 nM
NCI-H82
  IC50: 10 to 50 nM
Romas
  IC50: < 10 nM

## O=C1CCC(N2Cc3cc(CNC(=O)Nc4ccc(CCCOC5CNCC6CCCCC65)c(Cl)c4)ccc3C2=O)C(=O)N1 (stereo not shown) [Compound B70]
NCI-H929
  IC50: < 10 nM
HL-60
  IC50: < 10 nM
SK-BR-3; [11]
  IC50: 10 to 50 nM
NCI-H82
  IC50: 10 to 50 nM
Romas
  IC50: 10 to 50 nM

## O=C1CCC(N2Cc3cc(CNC(=O)Nc4ccc(CCCOC5CCNC6CC65)c(Cl)c4)ccc3C2=O)C(=O)N1 (stereo not shown) [Compound B71]
NCI-H929
  IC50: < 10 nM
HL-60
  IC50: < 10 nM
SK-BR-3; [11]
  IC50: < 10 nM
NCI-H82
  IC50: 10 to 50 nM
Romas
  IC50: < 10 nM

## O=C1CCC(N2Cc3cc(CNC(=O)Nc4ccc(CCCOC5CCNCC56CC6)c(Cl)c4)ccc3C2=O)C(=O)N1 (stereo not shown) [Compound B72]
NCI-H929
  IC50: < 10 nM
HL-60
  IC50: < 10 nM
SK-BR-3; [11]
  IC50: 10 to 50 nM
NCI-H82
  IC50: 10 to 50 nM
Romas
  IC50: 10 to 50 nM

## CNCCOCCc1ccc(NC(=O)NCc2ccc3c(c2)CN(C2CCC(=O)NC2=O)C3=O)cc1Cl (stereo not shown) [Smol006, reference compound]
NCI-H929
  IC50: 50 to 100 nM
HL-60
  IC50: 10 to 50 nM
SK-BR-3; [11]
  IC50: > 100 nM
SK-BR-3; read-out: SK-BR-3 IC50
  IC50: 32.3 nM
NCI-H82
  IC50: 50 to 100 nM
Romas
  IC50: > 100 nM
HCT-15
  IC50: > 1000 nM
AsPc-1
  IC50: 50 to 200 nM
SNU-5
  IC50: > 1000 nM
GSPT1 protein
  DC50: 274 nM

From patent EP4667463A1, “DOMIDE MOLECULAR GLUE DERIVATIVE AND USE THEREOF” (CSPC Megalith Biopharmaceutical Co., Ltd., priority 2023, dated 2024)
